Starred links: 1 amine or outer side, 2 acyl side, 3 side chain; linkers in the order of their positions; H or OH if unused. Positions of bridges follow the written chain, without caps; N, C: chain ends. Non-standard residues stand in square brackets, D forms with d. Residues, ends and D or L forms follow the SMILES beside them. hCys = N[C@@H](CCS)C(=O)O; Dab = NCC[C@H](N)C(=O)O; X2 = O=C(C[*:1])[*:2] Some results are limits rather than exact numbers.

For one series, the target named is human integrin αvβ5 (Homo sapiens, UniProt P06756+P18084). Description: Evaluation of integrin binding property (surface plasmon resonance, Biacore 3000, immobilized cyclic peptide). As to conditions: SPR, 25° C., HEPES buffer with 5 mM magnesium chloride, integrin 30-1,000 nM; read-out: Performance evaluation: Binding activity (dissociation constant between the cyclic peptide and human integrin αvβ5). The essentials: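 SPR with cyclic peptide amine-coupled via EDC/NHS to a CM5 chip, blank channel as reference. Integrin αvβ5 at 30, 100, 300 and 1,000 nM injected 10 min at 25 °C in HEPES buffer pH 7.4 with 5 mM MgCl2, 30 min buffer flow, EDTA regeneration; Kd from reference-subtracted signals, graded by category.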
Chain of human integrin αvβ5 (P06756 31-1048): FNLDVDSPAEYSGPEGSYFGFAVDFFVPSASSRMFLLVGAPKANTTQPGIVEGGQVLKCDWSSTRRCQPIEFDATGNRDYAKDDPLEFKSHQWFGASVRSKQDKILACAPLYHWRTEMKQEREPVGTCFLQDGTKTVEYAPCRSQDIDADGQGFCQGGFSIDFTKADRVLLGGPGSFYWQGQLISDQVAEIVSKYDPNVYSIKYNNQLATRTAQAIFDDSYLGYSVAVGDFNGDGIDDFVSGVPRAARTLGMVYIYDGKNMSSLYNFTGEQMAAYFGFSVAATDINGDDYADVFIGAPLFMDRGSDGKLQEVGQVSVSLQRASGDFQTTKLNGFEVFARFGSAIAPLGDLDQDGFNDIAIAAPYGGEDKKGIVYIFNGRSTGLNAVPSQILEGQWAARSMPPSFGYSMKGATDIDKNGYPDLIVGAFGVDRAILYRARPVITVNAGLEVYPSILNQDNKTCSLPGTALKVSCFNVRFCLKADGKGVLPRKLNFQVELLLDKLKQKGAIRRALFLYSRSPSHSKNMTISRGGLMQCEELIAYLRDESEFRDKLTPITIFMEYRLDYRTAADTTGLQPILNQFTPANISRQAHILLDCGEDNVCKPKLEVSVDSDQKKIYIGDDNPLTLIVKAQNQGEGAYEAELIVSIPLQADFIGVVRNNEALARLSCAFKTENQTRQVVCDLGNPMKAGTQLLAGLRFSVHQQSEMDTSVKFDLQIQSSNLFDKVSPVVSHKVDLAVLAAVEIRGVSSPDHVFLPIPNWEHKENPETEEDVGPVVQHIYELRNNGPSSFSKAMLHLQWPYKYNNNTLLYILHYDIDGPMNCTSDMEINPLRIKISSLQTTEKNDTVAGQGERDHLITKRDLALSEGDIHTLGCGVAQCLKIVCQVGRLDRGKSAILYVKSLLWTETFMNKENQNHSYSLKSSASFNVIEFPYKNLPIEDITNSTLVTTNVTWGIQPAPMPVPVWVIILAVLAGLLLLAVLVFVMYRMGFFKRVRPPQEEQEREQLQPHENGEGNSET
Chain of human integrin αvβ5 (P18084 24-799): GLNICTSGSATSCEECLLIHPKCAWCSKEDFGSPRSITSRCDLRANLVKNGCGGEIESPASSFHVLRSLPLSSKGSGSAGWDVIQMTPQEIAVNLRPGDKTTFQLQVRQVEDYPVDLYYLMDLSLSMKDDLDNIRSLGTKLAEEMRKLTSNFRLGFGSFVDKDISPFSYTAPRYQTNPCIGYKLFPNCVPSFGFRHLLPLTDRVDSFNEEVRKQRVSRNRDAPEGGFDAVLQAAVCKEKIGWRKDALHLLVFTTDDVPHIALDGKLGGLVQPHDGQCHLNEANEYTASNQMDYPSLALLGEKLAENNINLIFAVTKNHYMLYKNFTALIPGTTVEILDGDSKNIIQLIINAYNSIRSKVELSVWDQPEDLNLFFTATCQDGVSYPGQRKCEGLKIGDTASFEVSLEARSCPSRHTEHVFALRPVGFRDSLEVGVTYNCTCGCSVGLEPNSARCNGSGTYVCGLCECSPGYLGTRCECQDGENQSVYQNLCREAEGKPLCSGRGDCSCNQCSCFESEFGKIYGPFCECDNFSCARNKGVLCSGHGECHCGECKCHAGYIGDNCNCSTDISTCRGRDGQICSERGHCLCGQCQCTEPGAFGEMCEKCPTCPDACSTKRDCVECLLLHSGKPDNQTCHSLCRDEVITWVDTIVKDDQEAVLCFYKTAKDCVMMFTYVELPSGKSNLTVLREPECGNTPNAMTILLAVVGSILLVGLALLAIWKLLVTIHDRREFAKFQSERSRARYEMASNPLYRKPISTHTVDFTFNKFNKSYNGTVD
Background: SPR reads the build-up and loss of mass on a sensor chip optically.

The nature of series [1]: Evaluation of molecule stability (alkali treatment, residual rate by LC/MS). The format is physicochemical. The following applies: 500 μM peptide aqueous solution plus equivalent of 1 M sodium hydroxide, 15° C., 3 hours, LC/MS peak area. In outline: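 500 μM aqueous cyclic peptide mixed with an equal volume of 1 M NaOH and held 3 h at 15 °C. Residual rate is total LC/MS peak area after treatment relative to untreated (100%), using a C18 column, pH 3 ammonium formate/acetonitrile gradient, 45 °C, ESI±.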

Take `CC[C@H](C)[C@@H]1NC(=O)[C@@H](NC(=O)[C@H](C)NC(=O)[C@H](CCCCN)NC(=O)[C@H](CCCCN)NC(=O)[C@@H](N)CCCCN)CCSCC(=O)NCC[C@@H](C(=O)N[C@@H](C)C(=O)O)NC(=O)[C@H](CCCNC(=N)N)NC(=O)[C@H](Cc2ccccc2)NC(=O)[C@H](C)NC(=O)[C@H](CC(=O)O)NC(=O)CNC(=O)[C@H](CCCNC(=N)N)NC(=O)[C@@H]2CCCN2C1=O` [Cyclic peptide 79, KKKA-(Hcy)-IPRGDAFR(Dab(acetyl))A] (H-KKKA[hCys]IPRGDAFR[Dab]A-OH; linker 5-14 via X2): the Kd on human integrin αvβ5 fell in the range of 50 to 100 nM. For the same compound, the “Performance evaluation: Stability (residual rate of cyclic peptide after alkali treatment)” value in series [1] is given as “A (The residual rate of the cyclic peptide is 70% or more.)”.

For `CC[C@H](C)[C@@H]1NC(=O)[C@@H](NC(=O)[C@H](C)NC(=O)[C@H](CCCCN)NC(=O)[C@H](CCCCN)NC(=O)[C@@H](N)CCCCN)CCSCC(=O)NCC[C@@H](C(=O)N[C@@H](C)C(=O)O)NC(=O)[C@H](CCCNC(=N)N)NC(=O)[C@@H]2CCCN2C(=O)[C@H]([C@@H](C)O)NC(=O)[C@H](CC(=O)O)NC(=O)CNC(=O)[C@H](CCCNC(=N)N)NC(=O)[C@@H]2CCCN2C1=O` [Cyclic peptide 80, KKKA-(Hcy)-IPRGDTPR(Dab(acetyl))A] (H-KKKA[hCys]IPRGDTPR[Dab]A-OH; linker 5-14 via X2), at human integrin αvβ5, the Kd is 50 to 100 nM. Moreover, the “Performance evaluation: Stability (residual rate of cyclic peptide after alkali treatment)” value in series [1] is reported as “A (The residual rate of the cyclic peptide is 70% or more.)”.

As to `CC[C@H](C)[C@@H]1NC(=O)[C@@H](NC(=O)[C@H](C)NC(=O)[C@H](CCCCN)NC(=O)[C@H](CCCCN)NC(=O)[C@@H](N)CCCCN)CCSCC(=O)NCC[C@@H](C(=O)N[C@@H](C)C(=O)O)NC(=O)[C@H](CCCNC(=N)N)NC(=O)[C@H](Cc2ccc(O)cc2)NC(=O)[C@H]([C@@H](C)O)NC(=O)[C@H](CC(=O)O)NC(=O)CNC(=O)[C@H](CCCNC(=N)N)NC(=O)[C@@H]2CCCN2C1=O` [Cyclic peptide 81, KKKA-(Hcy)-IPRGDTYR(Dab(acetyl))A] (H-KKKA[hCys]IPRGDTYR[Dab]A-OH; linker 5-14 via X2), the Kd at human integrin αvβ5 lay within 50 to 100 nM. Besides, the “Performance evaluation: Stability (residual rate of cyclic peptide after alkali treatment)” value in series [1] is on record as “A (The residual rate of the cyclic peptide is 70% or more.)”.

As to `CC[C@H](C)[C@@H]1NC(=O)[C@@H](NC(=O)[C@H](C)NC(=O)[C@H](CCCCN)NC(=O)[C@H](CCCCN)NC(=O)[C@@H](N)CCCCN)CCSCC(=O)NCC[C@@H](C(=O)N[C@@H](C)C(=O)O)NC(=O)[C@H]([C@@H](C)O)NC(=O)[C@H](Cc2ccccc2)NC(=O)[C@H]([C@@H](C)O)NC(=O)[C@H](CC(=O)O)NC(=O)CNC(=O)[C@H](CCCNC(=N)N)NC(=O)[C@@H]2CCCN2C1=O` [Cyclic peptide 82, KKKA-(Hcy)-IPRGDTFT(Dab(acetyl))A] (H-KKKA[hCys]IPRGDTFT[Dab]A-OH; linker 5-14 via X2), the Kd at human integrin αvβ5 is 50 to 100 nM. Further, in series [1], the “Performance evaluation: Stability (residual rate of cyclic peptide after alkali treatment)” value is recorded as “A (The residual rate of the cyclic peptide is 70% or more.)”.

Take `CC[C@H](C)[C@@H]1NC(=O)[C@@H](NC(=O)[C@H](C)NC(=O)[C@H](CCCCN)NC(=O)[C@H](CCCCN)NC(=O)[C@@H](N)CCCCN)CCSCC(=O)NCC[C@@H](C(=O)N[C@@H](C)C(=O)O)NC(=O)[C@H](CO)NC(=O)[C@H](Cc2ccccc2)NC(=O)[C@H]([C@@H](C)O)NC(=O)[C@H](CC(=O)O)NC(=O)CNC(=O)[C@H](CCCNC(=N)N)NC(=O)[C@@H]2CCCN2C1=O` [Cyclic peptide 83, KKKA-(Hcy)-IPRGDTFS(Dab(acetyl))A] (H-KKKA[hCys]IPRGDTFS[Dab]A-OH; linker 5-14 via X2): the Kd at human integrin αvβ5 was less than 50 nM. Besides, the “Performance evaluation: Stability (residual rate of cyclic peptide after alkali treatment)” value in series [1] is “A (The residual rate of the cyclic peptide is 70% or more.)”.

As for `CC[C@H](C)[C@@H]1NC(=O)[C@@H](NC(=O)CNC(=O)[C@H](CCCCN)NC(=O)[C@H](CCCCN)NC(=O)[C@@H](N)CCCCN)CCSCC(=O)NCC[C@@H](C(=O)NCC(=O)O)NC(=O)[C@H](C)NC(=O)[C@H](Cc2ccccc2)NC(=O)[C@H]([C@@H](C)O)NC(=O)[C@H](CC(=O)O)NC(=O)CNC(=O)[C@H](CCCNC(=N)N)NC(=O)[C@@H]2CCCN2C1=O` [Cyclic peptide 84, KKKG-(Hcy)-IPRGDTFA(Dab(acetyl))G] (H-KKKG[hCys]IPRGDTFA[Dab]G-OH; linker 5-14 via X2), the Kd at human integrin αvβ5 is less than 50 nM. Moreover, the “Performance evaluation: Stability (residual rate of cyclic peptide after alkali treatment)” value in series [1] was “A (The residual rate of the cyclic peptide is 70% or more.)”.

Take `CC[C@H](C)[C@@H]1NC(=O)[C@@H](NC(=O)[C@H](C)NC(=O)[C@H](CCCCN)NC(=O)[C@H](CCCCN)NC(=O)[C@@H](N)CCCCN)CCSCC(=O)NCC[C@@H](C(=O)NCC(=O)O)NC(=O)[C@H](C)NC(=O)[C@H](Cc2ccccc2)NC(=O)[C@H]([C@@H](C)O)NC(=O)[C@H](CC(=O)O)NC(=O)CNC(=O)[C@H](CCCNC(=N)N)NC(=O)[C@@H]2CCCN2C1=O` [Cyclic peptide 85, KKKA-(Hcy)-IPRGDTFA(Dab(acetyl))G] (H-KKKA[hCys]IPRGDTFA[Dab]G-OH; linker 5-14 via X2): on human integrin αvβ5, the Kd is less than 50 nM. Also, in series [1], the “Performance evaluation: Stability (residual rate of cyclic peptide after alkali treatment)” value is “A (The residual rate of the cyclic peptide is 70% or more.)”.

As for `CC[C@H](C)[C@@H]1NC(=O)[C@@H](NC(=O)CNC(=O)[C@H](CCCCN)NC(=O)[C@H](CCCCN)NC(=O)[C@@H](N)CCCCN)CCSCC(=O)NCC[C@@H](C(=O)N[C@@H](C)C(=O)O)NC(=O)[C@H](C)NC(=O)[C@H](Cc2ccccc2)NC(=O)[C@H]([C@@H](C)O)NC(=O)[C@H](CC(=O)O)NC(=O)CNC(=O)[C@H](CCCNC(=N)N)NC(=O)[C@@H]2CCCN2C1=O` [Cyclic peptide 86, KKKG-(Hcy)-IPRGDTFA(Dab(acetyl))A] (H-KKKG[hCys]IPRGDTFA[Dab]A-OH; linker 5-14 via X2), the Kd on human integrin αvβ5 is less than 50 nM. Besides, in series [1], the “Performance evaluation: Stability (residual rate of cyclic peptide after alkali treatment)” value is “A (The residual rate of the cyclic peptide is 70% or more.)”.

Turning to `CC[C@H](C)[C@@H]1NC(=O)[C@@H](NC(=O)[C@H](C)NC(=O)[C@H](CCCCN)NC(=O)[C@H](CCCCN)NC(=O)[C@@H](N)CCCCN)CCSCC(=O)NCC[C@@H](C(=O)N[C@@H](C)C(=O)O)NC(=O)[C@H](C)NC(=O)[C@H](Cc2ccccc2)NC(=O)[C@H]([C@@H](C)O)NC(=O)[C@H](CC(=O)O)NC(=O)CNC(=O)[C@H](CCCNC(=N)N)NC(=O)[C@@H]2CCCN2C1=O` [Cyclic peptide 87, KKKA-(Hcy)-IPRGDTFA(Dab(acetyl))A] (H-KKKA[hCys]IPRGDTFA[Dab]A-OH; linker 5-14 via X2), the Kd at human integrin αvβ5 is less than 50 nM. In series [1], the “Performance evaluation: Stability (residual rate of cyclic peptide after alkali treatment)” value was “A (The residual rate of the cyclic peptide is 70% or more.)”.

As for `CC[C@H](C)[C@@H]1NC(=O)[C@@H](NC(=O)[C@H](C)NC(=O)[C@H](CCCCN)NC(=O)[C@H](CCCCN)NC(=O)[C@@H](N)CCCCN)CCSCC(=O)NCC[C@@H](C(=O)N[C@@H](C)C(=O)O)NC(=O)CNC(=O)[C@H](Cc2ccccc2)NC(=O)[C@H]([C@@H](C)O)NC(=O)[C@H](CC(=O)O)NC(=O)CNC(=O)[C@H](CCCNC(=N)N)NC(=O)[C@@H]2CCCN2C1=O` [Cyclic peptide 88, KKKA-(Hcy)-IPRGDTFG(Dab(acetyl))A] (H-KKKA[hCys]IPRGDTFG[Dab]A-OH; linker 5-14 via X2), at human integrin αvβ5, the Kd was less than 50 nM. Besides, the “Performance evaluation: Stability (residual rate of cyclic peptide after alkali treatment)” value in series [1] is recorded as “A (The residual rate of the cyclic peptide is 70% or more.)”.

For `CC(C)[C@@H]1NC(=O)[C@@H](NC(=O)[C@H](C)NC(=O)[C@H](CCCCN)NC(=O)[C@H](CCCCN)NC(=O)[C@@H](N)CCCCN)CCSCC(=O)NCC[C@@H](C(=O)N[C@@H](C)C(=O)O)NC(=O)[C@H](CCCNC(=N)N)NC(=O)[C@H](Cc2ccccc2)NC(=O)[C@H]([C@@H](C)O)NC(=O)[C@H](CC(=O)O)NC(=O)CNC(=O)[C@H](CCCNC(=N)N)NC(=O)[C@H]([C@@H](C)O)NC1=O` [Cyclic peptide 89, KKKA-(Hcy)-VTRGDTFR(Dab(acetyl))A] (H-KKKA[hCys]VTRGDTFR[Dab]A-OH; linker 5-14 via X2), the Kd on human integrin αvβ5 was less than 50 nM. The “Performance evaluation: Stability (residual rate of cyclic peptide after alkali treatment)” value in series [1] was “A (The residual rate of the cyclic peptide is 70% or more.)”.

For the compound `CC[C@H](C)[C@@H]1NC(=O)[C@@H](NC(=O)[C@H](C)NC(=O)[C@H](CCCCN)NC(=O)[C@H](CCCCN)NC(=O)[C@@H](N)CCCCN)CCSCC(=O)NCC[C@@H](C(=O)N[C@@H](C)C(=O)O)NC(=O)[C@H](C)NC(=O)[C@H](Cc2ccccc2)NC(=O)[C@H](C)NC(=O)[C@H](CC(=O)O)NC(=O)CNC(=O)[C@H](CCCNC(=N)N)NC(=O)[C@@H]2CCCN2C1=O` [Cyclic peptide 90, KKKA-(Hcy)-IPRGDAFA(Dab(acetyl))A] (H-KKKA[hCys]IPRGDAFA[Dab]A-OH; linker 5-14 via X2), on human integrin αvβ5, the Kd was less than 50 nM. For the same compound, in series [1], the “Performance evaluation: Stability (residual rate of cyclic peptide after alkali treatment)” value is “A (The residual rate of the cyclic peptide is 70% or more.)”.

As for `CC(C)[C@@H]1NC(=O)[C@@H](NC(=O)[C@H](C)NC(=O)[C@H](CCCCN)NC(=O)[C@H](CCCCN)NC(=O)[C@@H](N)CCCCN)CCSCC(=O)NCC[C@@H](C(=O)N[C@@H](C)C(=O)O)NC(=O)[C@H](C)NC(=O)[C@H](Cc2ccccc2)NC(=O)[C@H](C)NC(=O)[C@H](CC(=O)O)NC(=O)CNC(=O)[C@H](CCCNC(=N)N)NC(=O)[C@@H]2CCCN2C1=O` [Cyclic peptide 91, KKKA-(Hcy)-VPRGDAFA(Dab(acetyl))A] (H-KKKA[hCys]VPRGDAFA[Dab]A-OH; linker 5-14 via X2), the Kd on human integrin αvβ5 was less than 50 nM. In addition, in series [1], the “Performance evaluation: Stability (residual rate of cyclic peptide after alkali treatment)” value is recorded as “A (The residual rate of the cyclic peptide is 70% or more.)”.

Values taken from patent US12673975B2, “Cyclic peptide, cell scaffold material, cell separating material, and medium” (FUJIFILM Corporation, priority 2019, dated 2026).
